What was measured:
KRas G12C [1] = target: KRas G12C (Homo sapiens, UniProt P01116, C118S/C51S/C80L/G12C); test: KRas G12C Modification Assay (LCMS detection of covalent adduct); type: binding; conditions: normalized percent of control; 5 μM concentration for 3 hours
Outline: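 Intact protein analysed by LC/MS with deconvolution; unmodified protein signal normalized to no-compound control and reported as percent of control (POC).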

KRas G12C [2] = target: KRas G12C (Homo sapiens, UniProt P01116, G12C); test: Cellular inhibition of KRas G12C measured by Phospho-ERK in NCI-H358 cells; type: cell-based; conditions: pERK(Thr202/Tyr204) normalized with GAPDH, NCI-H358 cells, 3 hours; read-out: IC50
Outline: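 Following 8-12 h attachment, NCI-H358 cells got serially diluted compound (0.5% DMSO) for 3 hours. Cells were then fixed, permeabilized with cold methanol, and stained for pERK(Thr202/Tyr204) and GAPDH. Ratios were converted to percent of DMSO control, with IC50 obtained by four-parameter regression.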

SMILES | POC (KRas G12C [1]) | IC50 (KRas G12C [2]) [µM]
C=C(F)C(=O)N1CCN(c2nc(OC[C@@H]3CCCN3)nc3c2CCN(c2cccc4cccc(Cl)c24)C3)C[C@@H]1CC#N [Example 571, 2-((S)-4-(7-(8-Chloronaphthalen-1-yl)-2-((S)-pyrrolidin-2-ylmethoxy)-5,6,7,8-tetrahydropyrido[3,4-d]pyrimidin-4-yl)-1-(2-fluoroacryloyl)piperazin-2-yl)acetonitrile] | C (“C”>50% POC) | 0.0001 to 1
C=C(F)C(=O)N1CCN(c2nc(OC[C@@H]3CCC(=O)N3C)nc3c2CCN(c2cccc4cccc(Cl)c24)C3)C[C@@H]1CC#N [Example 572, 2-[(2S)-4-[7-(8-Chloro-1-naphthyl)-2-[[(2S)-1-methyl-5-oxo-pyrrolidin-2-yl]methoxy]-6,8-dihydro-5H-pyrido [3,4-d]pyrimidin-4-yl]-1-(2-fluoroprop-2-enoyl)piperazin-2-yl] acetonitrile] | C (“C”>50% POC) | > 1
C=C(F)C(=O)N1CCN(c2nc(OC[C@@H]3C[C@@H](F)CN3C)nc3c2CCN(c2cccc4cccc(Cl)c24)C3)C[C@@H]1CC#N [Example 574, 2-[(2S)-4-[7-(8-Chloro-1-naphthyl)-2-[[(2S,4R)-4-fluoro-1-methyl-pyrrolidin-2-yl]methoxy]-6,8-dihydro-5H-pyrido[3,4-d]pyrimidin-4-yl]-1-(2-fluoroprop-2-enoyl)piperazin-2-yl] acetonitrile] | C (“C”>50% POC) | 0.0001 to 1
C=C(F)C(=O)N1CCN(c2nc(OC[C@@H]3CCN(C)C3)nc3c2CCN(c2cccc4cccc(Cl)c24)C3)C[C@@H]1CC#N [Example 575, 2-[(2S)-4-[7-(8-Chloro-1-naphthyl)-2-[[(3R)-1-methylpyrrolidin-3-yl]methoxy]-6,8-dihydro-5H-pyrido[3,4-d]pyrimidin-4-yl]-1-(2-fluoroprop-2-enoyl)piperazin-2-yl]acetonitrile] | C (“C”>50% POC) | 0.0001 to 1
C=C(F)C(=O)N1CCN(c2nc(OC[C@H]3C[C@@H](OC)CN3C)nc3c2CCN(c2cccc4cccc(Cl)c24)C3)C[C@@H]1CC#N [Example 576, 2-[(2S)-4-[7-(8-Chloro-1-naphthyl)-2-[[(2R,4R)-4-methoxy-1-methyl-pyrrolidin-2-yl]methoxy]-6,8-dihydro-5H-pyrido[3,4-d]pyrimidin-4-yl]-1-(2-fluoroprop-2-enoyl)piperazin-2-yl]acetonitrile] | C (“C”>50% POC) | 0.0001 to 1
C=C(F)C(=O)N1CCN(c2nc(OC[C@@H]3C[C@@H](OC)CN3C)nc3c2CCN(c2cccc4cccc(Cl)c24)C3)C[C@@H]1CC#N [Example 577, 2-[(2S)-4-[7-(8-Chloro-1-naphthyl)-2-[[(2S,4R)-4-methoxy-1-methyl-pyrrolidin-2-yl]methoxy]-6,8-dihydro-5H-pyrido[3,4-d]pyrimidin-4-yl]-1-(2-fluoroprop-2-enoyl)piperazin-2-yl] acetonitrile] | C (“C”>50% POC) | 0.0001 to 1
Cc1cccc2cccc(N3CCc4c(nc(OC[C@@H]5C[C@@H](F)CN5C)nc4N4CCN(C(=O)/C=C/CF)[C@@H](CC#N)C4)C3)c12 [Example 578, 2-[(2S)-1-[(E)-4-Fluorobut-2-enoyl]-4-[2-[[(2S,4R)-4-fluoro-1-methyl-pyrrolidin-2-yl]methoxy]-7-(8-methyl-1-naphthyl)-6,8-dihydro-5H-pyrido[3,4-d]pyrimidin-4-yl]piperazin-2-yl] acetonitrile] | C (“C”>50% POC) | 0.0001 to 1
Cc1cccc2cccc(N3CCc4c(nc(OC[C@@H]5CCN(C)C5)nc4N4CCN(C(=O)/C=C/CF)[C@@H](CC#N)C4)C3)c12 [Example 581, 2-[(2S)-1-[(E)-4-fluorobut-2-enoyl]-4-[7-(8-methyl-1-naphthyl)-2-[[(3R)-1-methylpyrrolidin-3-yl]methoxy]-6,8-dihydro-5H-pyrido[3,4-d]pyrimidin-4-yl]piperazin-2-yl]acetonitrile] | C (“C”>50% POC) | 0.0001 to 1
CN1C[C@H](F)C[C@H]1COc1nc2c(c(N3CCN(C(=O)/C=C/CF)[C@@H](CC#N)C3)n1)CCN(c1cccc3cccc(Cl)c13)C2 [Example 582, 2-((S)-4-(7-(8-Chloronaphthalen-1-yl)-2-(((2S,4R)-4-fluoro-1-methylpyrrolidin-2-yl)methoxy)-5,6,7,8-tetrahydropyrido[3,4-d]pyrimidin-4-yl)-1-((E)-4-fluorobut-2-enoyl)piperazin-2-yl)acetonitrile] | C (“C”>50% POC) | 0.0001 to 1
CO[C@@H]1C[C@@H](COc2nc3c(c(N4CCN(C(=O)/C=C/CF)[C@@H](CC#N)C4)n2)CCN(c2cccc4cccc(Cl)c24)C3)N(C)C1 [Example 583, 2-[(2S)-4-[7-(8-chloro-1-naphthyl)-2-[[(2S,4R)-4-methoxy-1-methyl-pyrrolidin-2-yl]methoxy]-6,8-dihydro-5H-pyrido[3,4-d]pyrimidin-4-yl]-1-[(E)-4-fluorobut-2-enoyl]piperazin-2-yl]acetonitrile] | C (“C”>50% POC) | 0.0001 to 1
N#CC[C@H]1CN(c2nc(OCCCN3C[C@@H]4C[C@H]3CO4)nc3c2CCN(c2cccc4cccc(Cl)c24)C3)CCN1C(=O)/C=C/CF [Example 585, 2-((S)-4-(2-(3-((1S,4S)-2-oxa-5-azabicyclo[2.2.1]heptan-5-yl)propoxy)-7-(8-chloronaphthalen-1-yl)-5,6,7,8-tetrahydropyrido[3,4-d]pyrimidin-4-yl)-1-((E)-4-fluorobut-2-enoyl)piperazin-2-yl)acetonitrile] | C (“C”>50% POC) | 0.0001 to 1
CN1CCC[C@@H]1COc1nc2c(c(N3CCN(C(=O)/C=C/CF)[C@@H](CC#N)C3)n1)CCN(c1cccc3cccc(Cl)c13)C2 [Example 586, 2-[(2S)-4-[7-(8-chloro-1-naphthyl)-2-[[(2R)-1-methylpyrrolidin-2-yl]methoxy]-6,8-dihydro-5H-pyrido[3,4-d]pyrimidin-4-yl]-1-[(E)-4-fluorobut-2-enoyl]piperazin-2-yl]acetonitrile] | C (“C”>50% POC) | 0.0001 to 1
CC(=O)N(C)C/C=C/C(=O)N1CCN(c2nc(OC[C@@H]3CCCN3C)nc3c2CCN(c2cccc4cccc(C)c24)C3)C[C@@H]1CC#N [Example 587] | A (“A”≤25% POC) | > 1
C=C(F)C(=O)N1CCN(c2nc(OC[C@@H]3CCCN3C)nc3c2CCN(c2cccc4cccc(Br)c24)C3)C[C@@H]1CC#N [Example 588, 2-((S)-4-(7-(8-Bromonaphthalen-1-yl)-2-(((S)-1-methylpyrrolidin-2-yl)methoxy)-5,6,7,8-tetrahydropyrido[3,4-d]pyrimidin-4-yl)-1-(2-fluoroacryloyl)piperazin-2-yl)acetonitrile] | C (“C”>50% POC) | 0.0001 to 1
C=C(F)C(=O)N1CCN(c2nc(OC[C@@H]3CCCN3C)nc3c2CCN(c2cccc4cccc(C(F)(F)F)c24)C3)C[C@@H]1CC#N [Example 589, 2-((S)-1-(2-Fluoroacryloyl)-4-(2-(((S)-1-methylpyrrolidin-2-yl)methoxy)-7-(8-(trifluoromethyl)naphthalen-1-yl)-5,6,7,8-tetrahydropyrido[3,4-d]pyrimidin-4-yl)piperazin-2-yl)acetonitrile] | C (“C”>50% POC) | 0.0001 to 1
C=C(F)C(=O)N1CCN(c2nc(OC[C@@H]3CCCN3C)nc3c2CCN(c2cccc4cccc(C5CC5)c24)C3)C[C@@H]1CC#N [Example 590, 2-((S)-4-(7-(8-Cyclopropylnaphthalen-1-yl)-2-(((S)-1-methylpyrrolidin-2-yl)methoxy)-5,6,7,8-tetrahydropyrido[3,4-d]pyrimidin-4-yl)-1-(2-fluoroacryloyl)piperazin-2-yl)acetonitrile] | B (“B”>25% POC-≤50% POC) | > 1
C=C(F)C(=O)N1CCN(c2nc(OC[C@@H]3CCCN3C)nc3c2CCN(c2cccc4cccc(C(C)C)c24)C3)C[C@@H]1CC#N [Example 591] | B (“B”>25% POC-≤50% POC) | > 1
C=C(F)C(=O)N1CCN(c2nc(OC[C@@H]3CCCN3C)nc3c2CCN(c2cccc4ccnc(C)c24)C3)C[C@@H]1CC#N [Example 592] | C (“C”>50% POC) | > 1
C=C(F)C(=O)N1CCN(c2nc(OC[C@@H]3CCCN3C)nc3c2CCN(c2cncc4cccc(Cl)c24)C3)C[C@@H]1CC#N [Example 593, 2-((S)-4-(7-(5-Chloroisoquinolin-4-yl)-2-(((S)-1-methylpyrrolidin-2-yl)methoxy)-5,6,7,8-tetrahydropyrido[3,4-d]pyrimidin-4-yl)-1-(2-fluoroacryloyl)piperazin-2-yl)acetonitrile] | C (“C”>50% POC) | 0.0001 to 1
C=C(F)C(=O)N1CCN(c2nc(OC[C@@H]3CCCN3C)nc3c2CCN(c2nccc4cccc(Br)c24)C3)C[C@@H]1CC#N [Example 594, 2-((S)-4-(7-(8-Bromoisoquinolin-1-yl)-2-(((S)-1-methylpyrrolidin-2-yl)methoxy)-5,6,7,8-tetrahydropyrido[3,4-d]pyrimidin-4-yl)-1-(2-fluoroacryloyl)piperazin-2-yl)acetonitrile] | A (“A”≤25% POC) | > 1
C=C(F)C(=O)N1CCN(c2nc(OC[C@@H]3CCCN3C)nc3c2CCN(c2cccc4ccnc(Cl)c24)C3)C[C@@H]1CC#N [Example 595, 2-((S)-4-(7-(1-chloroisoquinolin-8-yl)-2-(((S)-1-methylpyrrolidin-2-yl)methoxy)-5,6,7,8-tetrahydropyrido[3,4-d]pyrimidin-4-yl)-1-(2-fluoroacryloyl)piperazin-2-yl)acetonitrile] | C (“C”>50% POC) | 0.0001 to 1
